The record followed here is patent US20240294551A1 (AMGEN INC., priority 2022, published 2024).

Molecules are shown by their SMILES. Read-outs that look alike come from different tables or passages of the source.

In one assay the test system is AsPC-1 cells. In words: AsPC-1 CTG Assay (CellTiter-Glo cell viability). The assay is classed as cell-based, human. Conditions: AsPC-1, 72 h, first value of the cell, read-out: G12D/C/V Cell Proliferation CTG (72 h) AsPC-1. A digest of the protocol: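 IC50 values derive from 4-parameter logistic fits of CellTiter-Glo luminescence, expressed relative to DMSO. Compound dilution series were applied to overnight-seeded AsPC-1 or SW620 cells (RPMI 1640, 10% FBS) for 72 h at 37 °C, 5% CO2.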
(In ATP-based viability assays light output follows the ATP content of the culture.)

The test system of assay [1] is Phosphorylation of ERK1/2 in AsPC-1 cells. Kind of assay: Phospho-ERK1/2 MSD Assay. The assay is classed as cell-based, human. The following applies: read-out: 2 h p-ERK (AsPC-1 cells), IC50. In outline:
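Read-out: MSD electrochemiluminescent detection of phosphorylated ERK1/2 in whole-cell lysates, fitted to a 4-parameter logistic curve for IC50. Prior to lysis, AsPC-1 cells (25,000 per well) received a 2 h compound dose-response at 37 °C.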

The target of assay [2] is GDP-bound KRAS protein (aa 1-169), containing both G12D and C118A amino acid substitutions (Homo sapiens (Human), UniProt P01116, C118A/G12D). Kind of assay: KRAS G12D Coupled Nucleotide Exchange Assay. The assay is classed as biochemical. Conditions: read-out: KRAS G12D Coupled Exchange IC50.
Assay [3] addresses His-tagged KRAS G12D protein (Homo sapiens (Human), UniProt P01116, G12D). In words: KRAS G12D TR-FRET Assay. The assay is classed as binding. The following applies: read-out: KRAS G12D Binding IC50. A digest of the protocol:
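Each incubation ran at room temperature: enzyme with compound for 30 minutes, peptide for one hour, and detection reagents (0.4 nM europium anti-6×His, 5 nM streptavidin-d2) for one hour more. Protein and peptide stocks were each diluted to 20 nM before addition.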
On the technique in general: TR-FRET usually uses a lanthanide donor and a delayed reading to cut background.

The next assay relates to MIA PaCa-2 cells. Kind of assay: MIA PaCa-2 CTG Assay (CellTiter-Glo cell viability). The assay is classed as cell-based, human. Conditions: Homo sapiens; Mia PaCa-2, 72 h; second value of the cell; read-out: G12D/C/V Cell Proliferation CTG (72 h) Mia PaCa-2. How it is done:
MIA PaCa-2 CTG Assay Protocol
MIA PaCa-2 (human pancreatic carcinoma; ATCC CRL-1420) cells were cultured in RPMI 1640 medium containing 10% fetal bovine serum and 1× penicillin/streptomycin/L-glutamine. Cells were seeded in 384-well plates at a density of 1.67E+04 cells/mL and incubated at 37° C., 5% CO2, overnight. Serially-diluted compound or DMSO was added to the cells, and plates were incubated at 37° C., 5% CO2 for 72 h. Cell viability was measured using a CellTiter-Glo® Luminescent Cell Viability Assay kit (Promega) according to the manufacturer's protocol. The luminescence signal of treated samples was normalized to DMSO control, and data were analyzed using a 4-parameter logistic model to calculate IC50 values.

Sequence of His-tagged KRAS G12D protein (P01116 other isoform, or with tags, fused parts or gaps G12D): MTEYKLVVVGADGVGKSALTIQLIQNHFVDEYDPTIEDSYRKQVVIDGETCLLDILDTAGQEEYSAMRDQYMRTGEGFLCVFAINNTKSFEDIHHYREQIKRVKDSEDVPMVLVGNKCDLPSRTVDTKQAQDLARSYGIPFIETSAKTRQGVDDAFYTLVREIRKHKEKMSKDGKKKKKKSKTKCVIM
Sequence of GDP-bound KRAS protein (aa 1-169), containing both G12D and C118A amino acid substitutions (P01116 other isoform, or with tags, fused parts or gaps G12D/C118A): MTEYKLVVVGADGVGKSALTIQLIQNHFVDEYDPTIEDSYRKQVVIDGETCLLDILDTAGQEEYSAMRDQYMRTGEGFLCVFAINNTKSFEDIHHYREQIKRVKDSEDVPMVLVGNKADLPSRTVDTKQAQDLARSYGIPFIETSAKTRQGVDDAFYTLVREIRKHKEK

For the molecule `C[C@@]12CCCCN(C1)c1nc(OC[C@@]34CCCN3C[C@H](F)C4)nc3c(F)c(ncc13)-c1c(c(Cl)cc3[nH]ncc13)CCC[C@H](F)C(=O)N2` (mixture of isomers) [Example 281, (23RS,26R)-18-chloro-23,32-difluoro-4-(((2R,7aS)-2-fluorotetrahydro-1H-pyrrolo[1,2-a]pyrrol-7a(5H)-yl)methoxy)-26-methyl-1,3,5,9,14,15,25-heptaazahexacyclo[24.4.1.1~6,10~.0~2,7~.0~11,19~.0~12,16~]dotriaconta-2,4,6,8,10(32),11,13,16,18-nonaen-24-one], the IC50 in the assay with AsPC-1 cells (Homo sapiens, ASPC1, 72 h) turned out to be 104 nM; in assay [1] (Homo sapiens, ASPC1, 2 h), 7.9 nM; in assay [2] it was 2 nM; in assay [3] it was 5 nM; in the assay on MIA PaCa-2 cells, 90 nM.
The like results for `CO[C@@H]1C[C@@H](COc2nc3c4cnc(c(F)c4n2)-c2c(c(Cl)cc4[nH]ncc24)CCOC(=O)OC2CC4(CCCN3C4)C2)N(C)C1` (mixture of isomers) [Example 307] were, in that order, 134 nM, 12 nM, 2 nM, 4 nM and 62 nM.
For `O=C1OC/C=C\c2c(Cl)cc3[nH]ncc3c2-c2ncc3c(nc(OC[C@@]45CCCN4C[C@H](F)C5)nc3c2F)N2CCC[C@H](C2)O1` (single isomer, unassigned) [Example 122], in that order: 250 nM, 8 nM, 3 nM, 5 nM and 100 nM.
Take `Cc1cc2[nH]ncc2c2c1CCCC(F)C(=O)N[C@@H]1CCCCN(C1)c1nc(OC[C@@]34CCCN3C[C@H](F)C4)nc3c(F)c-2ncc13` (single isomer, unassigned) [Example 160]: the IC50 in the assay on AsPC-1 cells (Homo sapiens, ASPC1, 72 h) was found to be 587 nM; in assay [1] (2 h), 71.8 nM; in assay [2], 3 nM; in assay [3] it was 4 nM; in the assay on MIA PaCa-2 cells it was 420 nM.
With `Cc1cc2[nH]ncc2c2c1[C@H]1C[C@H]1CCOC[C@H]1CN(CCO1)c1nc(OC[C@@]34CCCN3C[C@H](F)C4)nc3c(F)c-2ncc13` (single isomer, unassigned) [Example 226], the IC50 was found to be 412 nM with AsPC-1 cells (Homo sapiens, ASPC1, 72 h); 77.8 nM in assay [1] (Homo sapiens, ASPC1, 2 h); 5 nM in assay [2]; 7 nM in assay [3]; 130 nM with MIA PaCa-2 cells.
As to `Fc1c2ncc3c(nc(OC[C@@]45CCCN4C[C@H](F)C5)nc13)N1CCO[C@]3(C1)C[C@@H](C3)OCCCCc1c(Cl)cc3[nH]ncc3c1-2` (single isomer, unassigned) [Example 261], the IC50 in the assay on AsPC-1 cells (Homo sapiens, ASPC1, 72 h) is 270 nM; in assay [1] (Homo sapiens, ASPC1, 2 h) it was 40.2 nM; in assay [2] it was 5 nM; in assay [3], 6 nM; in the assay on MIA PaCa-2 cells, 28 nM.
Consider `Fc1c2ncc3c(nc(OC[C@@]45CCCN4C[C@H](F)C5)nc13)N1CCC[C@H](C1)c1coc(n1)CCCc1c(Cl)cc3[nH]ncc3c1-2` [Example 246, (18R)-9-chloro-31-fluoro-25-(((2R,7aS)-2-fluorotetrahydro-1H-pyrrolo[1,2-a]pyrrol-7a(5H)-yl)methoxy)-15-oxa-5,6,22,24,26,30,33-heptaazaheptacyclo[25.3.1.1~14,17~.1~18,22~.0~2,10~.0~3,7~.0~23,28~]tritriaconta-1(31),2,4,7,9,14(33),16,23,25,27,29-undecaene], for which the IC50 in the assay on AsPC-1 cells is 112 nM; in assay [1] (2 h), 10.1 nM; with MIA PaCa-2 cells, 82 nM.
